Consider 13 molecules from the supplement of paper PMC12592484.

Holding throughout (assay): drug sensitivity score (DSS2, normalised partial AUC of dose-response, 72 h CellTiter-Glo viability) (DSS (dimensionless)); higher = more sensitive (stronger growth inhibition / cytotoxicity); extreme values may be limits of the assay
In test [1] the test system is 22Rv1. The procedure, abridged:
(§1)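 Five doses spanning a 10,000-fold range were pre-dispensed into 384-well plates, into which low-passage primary prostate cancer-associated fibroblasts, PF179T, WPMY-1, LNCaP and 22Rv1 cells were seeded. After 72 h, CellTiter-Glo 2.0 luminescence measured viability, scaled to vehicle and positive-control wells. Higher values of the drug sensitivity score, a BREEZE-computed partial area under the fitted logistic dose–response curve divided by the log of the upper asymptote, mean greater sensitivity.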

Test [2] concerns CAF#1 (primary prostate cancer-associated fibroblasts of myCAF-like type). The procedure, abridged:
as §1

The test system of test [3] is CAF#2 (primary prostate cancer-associated fibroblasts of iCAF-like type). In a few lines: as §1
Test [4] relates to CAF#3 (primary prostate cancer-associated fibroblasts of myCAF-like type). The procedure, abridged:
as §1

Test [5] relates to CAF#4 (primary prostate cancer-associated fibroblasts of iCAF-like type). The procedure, abridged:
as §1

The subject of test [6] is CAF#5 (primary prostate cancer-associated fibroblasts of myCAF-like type). In a few lines:
as §1

Test [7] relates to CAF#6 (primary prostate cancer-associated fibroblasts of iCAF-like type). In a few lines:
as §1

Test [8] concerns CAF#7 (primary prostate cancer-associated fibroblasts of myCAF-like type). The procedure, abridged: as §1
Test [9] has as its system LNCAP. The procedure, abridged:
as §1

For test [10], the system named is PF179T. In a few lines:
as §1

Test [11] has as its system WPMY-1. The procedure, abridged: as §1

With `COc1ccc(C[C@H](NC(=O)[C@H](C)NC(=O)CN2CCOCC2)C(=O)N[C@@H](Cc2ccccc2)C(=O)C2(C)CO2)cc1` (stereo in doubt) [ONX-0914] (tested concentration range 1-10000 nM), the drug sensitivity score in test [1] was determined as 18; in [2], 14; in [3], 16; in test [4], 15.5; in test [5] it was 10.3; in test [6], 18.3. For the same molecule, the drug sensitivity score amounted to 15 in test [7]; 15.6 in test [8]; 19.3 in [9]; 14.8 in test [10]; 23.4 in test [11].
Take `Cc1ccc(C(=O)N(CCCN)[C@@H](c2oc3cc(Cl)ccc3c(=O)c2Cc2ccccc2)C(C)C)cc1` (tested concentration range 0-100 nM): the drug sensitivity score was determined as 3.6 in [1]; 1.6 in [2]; 7.1 in [3]; 0.4 in test [4]; 2.5 in test [5]; 4.3 in test [6]. Further, the drug sensitivity score is 1.6 in test [7]; 1.3 in test [8]; 19.3 in [9]; 2.9 in test [10]; 4 in test [11].
On to `CNS(=O)(=O)Nc1nccc(Cc2c(C)c3ccc(Oc4ncccn4)cc3oc2=O)c1F` (tested concentration range 0.1-1000 nM), for which the drug sensitivity score worked out at 0.2 in [1]; 0 in test [2]; 0 in [3]; 0 in [4]; 0 in [5]; 0 in [6]. For the same molecule, the drug sensitivity score in test [7] was 0; in [8], 0; in [9], 1.1; in test [10] it was 0; in [11], 0.
`C[C@@H](Oc1ccc2[nH]nc(/C=C/c3cnn(CCO)c3)c2c1)c1c(Cl)cncc1Cl` (tested concentration range 0.1-1000 nM): the drug sensitivity score in test [1] turned out to be 2.9; in test [2], 9.7; in [3] it was 7.2; in test [4], 9.9; in test [5] it was 5.7; in [6], 6.7. Moreover, the drug sensitivity score in test [7] stood at 10.9; in [8] it was 18.7; in test [9], 2.5; in [10] it was 8.9; in test [11], 8.
As to `Cc1c(-c2c(-c3ccc(F)o3)sc3ncnc(O[C@H](Cc4ccccc4OCc4ccnn4CC(F)(F)F)C(=O)O)c23)ccc(OCCN2CCN(C)CC2)c1Cl` (tested concentration range 0.1-1000 nM), the drug sensitivity score in test [1] amounted to 0.7; in test [2], 0; in [3] it was 0; in test [4] it was 0; in [5], 0; in [6], 0. The drug sensitivity score in test [7], in [8], in test [9], in [10] and in [11] was 0 throughout.
In the case of `Cc1c(-c2ccc(N3CCc4cccc(C(=O)Nc5nc6ccccc6s5)c4C3)nc2C(=O)O)cnn1CC12CC3CC(CC(C3)C1)C2` (tested concentration range 0.1-1000 nM), the drug sensitivity score is 0 in [1]; 0 in test [2]; 0 in test [3]; 0 in test [4]; 3.1 in [5]; 0 in test [6]. Moreover, the drug sensitivity score was 4.2 in test [7]; 0.4 in test [8]; 4.4 in test [9]; 0 in [10]; 0 in test [11].
As to `CO[C@@H](C)Cn1c(=O)n(C)c2cnc3ccc(-c4cncc(C(C)(C)O)c4)cc3c21` (tested concentration range 0.2-2500 nM), the drug sensitivity score in test [1] was determined as 16.8; in test [2], 14.1; in [3], 13.5; in test [4] it was 10.3; in test [5] it was 10.7; in test [6], 14.5. Moreover, the drug sensitivity score is 10.9 in test [7]; 10.5 in test [8]; 16.8 in test [9]; 14.1 in test [10]; 12 in [11].
With `Cc1cccc(CC(=O)N2CCc3c2ccc(-c2cn(C)c4ncnc(N)c24)c3F)n1` (tested concentration range 0.2-2500 nM), the drug sensitivity score is 0.1 in test [1]; 0 in test [2]; 0 in [3]; 0 in [4]; 0 in test [5]; 0 in test [6]. For the same molecule, the drug sensitivity score in [7] came to 0; in test [8], 0; in test [9], 0.7; in test [10] it was 0; in [11] it was 0.
As to `Cc1ncc(Cl)cc1NCc1ccc(C(=O)N[C@@H](CC2CCCC2)C(=O)NC2CC2)s1` (tested concentration range 0.5-5000 nM), the drug sensitivity score in [1] stood at 0; in test [2], 0; in [3], 3; in test [4], 0.4; in test [5], 0.6; in test [6], 2.1. The drug sensitivity score in [7] turned out to be 0; in [8] it was 1.2; in test [9], 2; in [10] it was 3.7; in test [11], 0.
Regarding `CC(C)Oc1ccc(C(=O)N[C@H](CNC(=O)CN(C)C)Cc2ccc(-c3cn4cccc([C@H](C)O)c4n3)cc2)cc1Cl` (tested concentration range 1-10000 nM), the drug sensitivity score in [1] was determined as 10.9; in [2], 1.4; in test [3], 9.8; in test [4] it was 2.5; in test [5] it was 5.5; in test [6] it was 3. In addition, the drug sensitivity score is 3.2 in test [7]; 2.4 in test [8]; 19.1 in test [9]; 9 in test [10]; 24.5 in test [11].
Take `CC[C@@H]1[C@H](F)C(=O)N[C@@H]1COc1nccc2cc(C(N)=O)c(OC)cc12` (tested concentration range 1-10000 nM): the drug sensitivity score in test [1] came to 1.4; in test [2], 0; in test [3], 0.4; in [4], 0; in test [5] it was 0; in test [6] it was 0. Further, the drug sensitivity score turned out to be 0 in test [7]; 0.1 in test [8]; 1.6 in test [9]; 0 in test [10]; 0 in test [11].
For the molecule `CCc1cncnc1N1CCN(Cc2nc3ccc(C(F)(F)F)cc3[nH]2)CC1` (tested concentration range 1-10000 nM), the drug sensitivity score in [1] stood at 2.9; in test [2], 1.8; in test [3], 2.4; in test [4], 7.6; in [5] it was 1.1; in test [6], 1.6. In addition, the drug sensitivity score in [7] came out at 0.5; in test [8] it was 0.9; in test [9] it was 4; in test [10] it was 0; in test [11], 1.7.
As for `CCn1c(-c2nonc2N)nc2c(C#CC(C)(C)O)ncc(OC[C@H]3CCCNC3)c21` (tested concentration range 1-10000 nM), the drug sensitivity score came out at 5.4 in test [1]; 3.8 in test [2]; 3.3 in test [3]; 0 in test [4]; 1.2 in test [5]; 1.6 in test [6]. The drug sensitivity score in test [7] turned out to be 0; in [8] it was 0; in test [9] it was 25.7; in test [10], 1.9; in test [11], 0.
